Tested on: NCI/ADR-RES complex spheroid viability
Experiment: Anticancer human tumor NCI/ADR-RES cell line growth inhibition;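 also: spheroids exposed to compounds for 7 days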;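 as to viability, T/C: 100% = DMSO vehicle treated spheroids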
Settings: for IC50: curve of first compound; for viability, T/C: stronger effect = lower value
Procedure, shortened: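 Drug combinations with the LSD1 inhibitor iadademstat tested on tumor cells co-cultured as spheroids with endothelial cells and mesenchymal stem cells. Concentrations descended in half-log increments from clinical Cmax or 10 microM.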

[1] = second compound 0.1 µM, first compound 0.00949 µM
[2] = second compound 0.1 µM, first compound 0.03 µM
[3] = second compound 0.1 µM, first compound 0.0949 µM
[4] = second compound 0.1 µM, first compound 0.3 µM
[5] = second compound 0.316 µM, first compound 0.00949 µM
[6] = second compound 0.316 µM, first compound 0.03 µM
[7] = second compound 0.316 µM, first compound 0.0949 µM
[8] = second compound 0.316 µM, first compound 0.3 µM
[9] = second compound 1 µM, first compound 0.00949 µM
[10] = second compound 1 µM, first compound 0.03 µM
[11] = second compound 1 µM, first compound 0.0949 µM
[12] = second compound 1 µM, first compound 0.3 µM
[13] = second compound 3.16 µM, first compound 0.00949 µM
[14] = second compound 3.16 µM, first compound 0.03 µM
[15] = second compound 3.16 µM, first compound 0.0949 µM
[16] = second compound 3.16 µM, first compound 0.3 µM
[17] = second compound 10 µM, first compound 0.00949 µM
[18] = second compound 10 µM, first compound 0.03 µM
[19] = second compound 10 µM, first compound 0.0949 µM
[20] = second compound 10 µM, first compound 0.3 µM

**Q.** For COc1cc(C2c3cc4c(cc3C(OC3OC5COC(C)OC5C(O)C3O)C3COC(=O)C23)OCO4)cc(OC)c1O (stereo not given) + NC1CCC(NC2CC2c2ccccc2)CC1, which IC50 (second compound 0.1 µM) is on record?
**A.** > 3000 nM

**Q.** And the IC50 (second compound 0.316 µM)?
**A.** > 3000 nM

**Q.** And the IC50 (second compound 1 µM)?
**A.** > 3000 nM

**Q.** What about the IC50 (second compound 3.16 µM) of the same compound?
**A.** > 3000 nM

**Q.** What about the IC50 (second compound 10 µM) of the same compound?
**A.** > 3000 nM

**Q.** And the viability, T/C [1]?
**A.** 92.9%

**Q.** And the viability, T/C [2]?
**A.** 103%

**Q.** And the viability, T/C [3]?
**A.** 99.4%

**Q.** What about the viability, T/C [4] of the same compound?
**A.** 100%

**Q.** And the viability, T/C (second compound 0.1 µM, first compound 0.949 µM)?
**A.** 98.3%

**Q.** What about the viability, T/C (second compound 0.1 µM, first compound 3 µM) of the same compound?
**A.** 91.1%

**Q.** And the viability, T/C [5]?
**A.** 101%

**Q.** And the viability, T/C [6]?
**A.** 101%

**Q.** What about the viability, T/C [7] of the same compound?
**A.** 103%

**Q.** What about the viability, T/C [8] of the same compound?
**A.** 100%

**Q.** What about the viability, T/C (second compound 0.316 µM, first compound 0.949 µM) of the same compound?
**A.** 95.6%

**Q.** And the viability, T/C (second compound 0.316 µM, first compound 3 µM)?
**A.** 94.4%

**Q.** What about the viability, T/C [9] of the same compound?
**A.** 98.8%

**Q.** What about the viability, T/C [10] of the same compound?
**A.** 96.5%

**Q.** What about the viability, T/C [11] of the same compound?
**A.** 95.8%

**Q.** What about the viability, T/C [12] of the same compound?
**A.** 96.6%

**Q.** And the viability, T/C (second compound 1 µM, first compound 0.949 µM)?
**A.** 94.7%

**Q.** And the viability, T/C (second compound 1 µM, first compound 3 µM)?
**A.** 91.3%

**Q.** What about the viability, T/C [13] of the same compound?
**A.** 96.9%

**Q.** What about the viability, T/C [14] of the same compound?
**A.** 91.8%

**Q.** What about the viability, T/C [15] of the same compound?
**A.** 99.2%

**Q.** What about the viability, T/C [16] of the same compound?
**A.** 97.3%

**Q.** And the viability, T/C (second compound 3.16 µM, first compound 0.949 µM)?
**A.** 94.5%

**Q.** What about the viability, T/C (second compound 3.16 µM, first compound 3 µM) of the same compound?
**A.** 86.1%

**Q.** What about the viability, T/C [17] of the same compound?
**A.** 93%

**Q.** And the viability, T/C [18]?
**A.** 92%

**Q.** And the viability, T/C [19]?
**A.** 86.3%

**Q.** What about the viability, T/C [20] of the same compound?
**A.** 90.3%

**Q.** What about the viability, T/C (second compound 10 µM, first compound 0.949 µM) of the same compound?
**A.** 81.6%

**Q.** And the viability, T/C (second compound 10 µM, first compound 3 µM)?
**A.** 82%

**Q.** Which IC50 (second compound 0.1 µM) does the source give for Nc1ccn(C2OC(CO)C(O)C2(F)F)c(=O)n1 (stereo not given) + NC1CCC(NC2CC2c2ccccc2)CC1 here?
**A.** < 0.949 nM

**Q.** And the IC50 (second compound 0.316 µM)?
**A.** < 0.949 nM

**Q.** And the IC50 (second compound 1 µM)?
**A.** < 0.949 nM

**Q.** What about the IC50 (second compound 3.16 µM) of the same compound?
**A.** < 0.949 nM

**Q.** And the IC50 (second compound 10 µM)?
**A.** < 0.949 nM

**Q.** What about the viability, T/C (second compound 0.1 µM, first compound 0.000949 µM) of the same compound?
**A.** 2.74%

**Q.** And the viability, T/C (second compound 0.1 µM, first compound 0.003 µM)?
**A.** 4.03%

**Q.** And the viability, T/C [1]?
**A.** 2.54%

**Q.** What about the viability, T/C [2] of the same compound?
**A.** 2.78%

**Q.** And the viability, T/C [3]?
**A.** 2.85%

**Q.** What about the viability, T/C [4] of the same compound?
**A.** 3.22%

**Q.** And the viability, T/C (second compound 0.316 µM, first compound 0.000949 µM)?
**A.** 4.09%

**Q.** And the viability, T/C (second compound 0.316 µM, first compound 0.003 µM)?
**A.** 4.64%

**Q.** What about the viability, T/C [5] of the same compound?
**A.** 2.74%

**Q.** What about the viability, T/C [6] of the same compound?
**A.** 3.17%

**Q.** And the viability, T/C [7]?
**A.** 1.83%

**Q.** What about the viability, T/C [8] of the same compound?
**A.** 5.17%

**Q.** And the viability, T/C (second compound 1 µM, first compound 0.000949 µM)?
**A.** 3.13%

**Q.** And the viability, T/C (second compound 1 µM, first compound 0.003 µM)?
**A.** 3.5%

**Q.** What about the viability, T/C [9] of the same compound?
**A.** 3.1%

**Q.** What about the viability, T/C [10] of the same compound?
**A.** 2.71%

**Q.** What about the viability, T/C [11] of the same compound?
**A.** 2.01%

**Q.** And the viability, T/C [12]?
**A.** 1.76%

**Q.** What about the viability, T/C (second compound 3.16 µM, first compound 0.000949 µM) of the same compound?
**A.** 2.3%

**Q.** What about the viability, T/C (second compound 3.16 µM, first compound 0.003 µM) of the same compound?
**A.** 3.42%

**Q.** And the viability, T/C [13]?
**A.** 2.96%

**Q.** And the viability, T/C [14]?
**A.** 1.75%

**Q.** What about the viability, T/C [15] of the same compound?
**A.** 0.86%

**Q.** And the viability, T/C [16]?
**A.** 2.49%

**Q.** What about the viability, T/C (second compound 10 µM, first compound 0.000949 µM) of the same compound?
**A.** 1.69%

**Q.** And the viability, T/C (second compound 10 µM, first compound 0.003 µM)?
**A.** 2.17%

**Q.** And the viability, T/C [17]?
**A.** 2.05%

**Q.** What about the viability, T/C [18] of the same compound?
**A.** 2.1%

**Q.** What about the viability, T/C [19] of the same compound?
**A.** 5.19%

**Q.** And the viability, T/C [20]?
**A.** 0.69%

**Q.** With Nc1ncn(C2CC(O)C(CO)O2)c(=O)n1 (stereo not given) + NC1CCC(NC2CC2c2ccccc2)CC1 as the compound, how does the IC50 (second compound 0.1 µM) read?
**A.** 82.7 nM

**Q.** And the IC50 (second compound 0.316 µM)?
**A.** 126 nM

**Q.** What about the IC50 (second compound 1 µM) of the same compound?
**A.** 76.7 nM

**Q.** What about the IC50 (second compound 3.16 µM) of the same compound?
**A.** 59.7 nM

**Q.** What about the IC50 (second compound 10 µM) of the same compound?
**A.** 18.5 nM

**Q.** What about the viability, T/C (second compound 0.1 µM, first compound 0.00316 µM) of the same compound?
**A.** 109%

**Q.** What about the viability, T/C (second compound 0.1 µM, first compound 0.01 µM) of the same compound?
**A.** 113%

**Q.** And the viability, T/C (second compound 0.1 µM, first compound 0.0316 µM)?
**A.** 73.4%

**Q.** And the viability, T/C (second compound 0.1 µM, first compound 0.1 µM)?
**A.** 48.6%

**Q.** What about the viability, T/C (second compound 0.1 µM, first compound 0.316 µM) of the same compound?
**A.** 26.1%

**Q.** What about the viability, T/C (second compound 0.1 µM, first compound 1 µM) of the same compound?
**A.** 23.5%

**Q.** And the viability, T/C (second compound 0.316 µM, first compound 0.00316 µM)?
**A.** 106%

**Q.** What about the viability, T/C (second compound 0.316 µM, first compound 0.01 µM) of the same compound?
**A.** 91%

**Q.** What about the viability, T/C (second compound 0.316 µM, first compound 0.0316 µM) of the same compound?
**A.** 78.3%

**Q.** What about the viability, T/C (second compound 0.316 µM, first compound 0.1 µM) of the same compound?
**A.** 53%

**Q.** What about the viability, T/C (second compound 0.316 µM, first compound 0.316 µM) of the same compound?
**A.** 33.8%

**Q.** And the viability, T/C (second compound 0.316 µM, first compound 1 µM)?
**A.** 18.9%

**Q.** And the viability, T/C (second compound 1 µM, first compound 0.00316 µM)?
**A.** 105%

**Q.** What about the viability, T/C (second compound 1 µM, first compound 0.01 µM) of the same compound?
**A.** 91.7%

**Q.** What about the viability, T/C (second compound 1 µM, first compound 0.0316 µM) of the same compound?
**A.** 74.6%

**Q.** And the viability, T/C (second compound 1 µM, first compound 0.1 µM)?
**A.** 41%

**Q.** What about the viability, T/C (second compound 1 µM, first compound 0.316 µM) of the same compound?
**A.** 28.2%

**Q.** And the viability, T/C (second compound 1 µM, first compound 1 µM)?
**A.** 19.4%

**Q.** And the viability, T/C (second compound 3.16 µM, first compound 0.00316 µM)?
**A.** 93.3%

**Q.** What about the viability, T/C (second compound 3.16 µM, first compound 0.01 µM) of the same compound?
**A.** 83.3%

**Q.** What about the viability, T/C (second compound 3.16 µM, first compound 0.0316 µM) of the same compound?
**A.** 63.1%

**Q.** What about the viability, T/C (second compound 3.16 µM, first compound 0.1 µM) of the same compound?
**A.** 40%

**Q.** And the viability, T/C (second compound 3.16 µM, first compound 0.316 µM)?
**A.** 24.1%

**Q.** And the viability, T/C (second compound 3.16 µM, first compound 1 µM)?
**A.** 20.8%

**Q.** And the viability, T/C (second compound 10 µM, first compound 0.00316 µM)?
**A.** 63%

**Q.** And the viability, T/C (second compound 10 µM, first compound 0.01 µM)?
**A.** 57.8%

**Q.** And the viability, T/C (second compound 10 µM, first compound 0.0316 µM)?
**A.** 43.1%

**Q.** And the viability, T/C (second compound 10 µM, first compound 0.1 µM)?
**A.** 27.3%

**Q.** And the viability, T/C (second compound 10 µM, first compound 0.316 µM)?
**A.** 17.2%

**Q.** What about the viability, T/C (second compound 10 µM, first compound 1 µM) of the same compound?
**A.** 15.9%

From PubChem BioAssay AID1918955 (Molecular Pharmacology Branch, DTP, NCI, 2023)
